Consider 13 compounds from article PMC8201479, “Trisubstituted Pyrrolinones as Small-Molecule Inhibitors Disrupting the Protein–RNA Interaction of LIN28 and Let-7” (ACS Medicinal Chemistry Letters, 2021).

Like-named read-outs stand apart in the source and are kept apart here.

Experiment [1] addresses T1, LIN28–let-7 interaction (Homo sapiens, UniProt Q9H9Z2).
T1 construct: Purified LIN28A (residues 16–187) was incubated at a concentration of 200 nM; His-tag (cleaved yes); made in house; host or cells: Escherichia coli BL21(DE3)
T1 sequence (Q9H9Z2 16-187): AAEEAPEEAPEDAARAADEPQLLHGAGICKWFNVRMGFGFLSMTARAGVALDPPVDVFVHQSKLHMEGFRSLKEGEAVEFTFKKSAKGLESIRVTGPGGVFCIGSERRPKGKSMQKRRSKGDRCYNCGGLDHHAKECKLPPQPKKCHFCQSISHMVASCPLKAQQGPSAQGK
The experiment in a line: Fluorescence polarization (FP) assay, LIN28A (residues 16–187) and FAM-labeled preE-let-7f-1. It counts as binding. The settings on record: for IC50: Table 1, quadruplicate, eight concentrations, read-out: IC50, LIN28–let-7 inhibitory activity; for FP, Average (mP): raw data Table S3, four replicates.

Experiment [2] deals with T1, LIN28–let-7 interaction. The description is as above. It counts as binding. The method, then:
Protein expression and purification.
19 vector and overexpressed in Escherichia coli BL21(DE3). The culture was incubated at 37 °C until
the absorbance at 600 nm (OD600) reached 0.5–0.7. IPTG was added to a final concentration of
300 µM, and overnight induction was performed at 18 °C. Cells were harvested by centrifugation.
The bacterial pellet was resuspended in lysis buffer (50 mM NaH2PO4, pH 7.5, 300 mM NaCl,
0.1 mM PMSF) and lysed using a Microfluidizer (Microfluidics) . A fresh portion of 0.1 mM PMSF
and Triton X-100 (1% final concentration) were added. The lysate was cleared by ultra centrifugation
at 30000 xg and 4 °C for 1 h. The protein purification was performed using immobilized nickel
300 mM NaCl and 5 % glycerol. Gradient elution was performed with a maximum of 0.5 M imidazole.
Subsequently, the affinity tag was cleaved using His6 -TEV-protease and the protease and unspecific
binders were eliminated by a second nickel affinity chromatography. After protein concentration
LIN28A containing fractions were concentrated and applied to a High Load Superdex 75 pg 16/600
column (GE Healthcare) with gel-filtration buffer (30 mM NaH2PO4, pH 7.5, 50 mM NaCl, 5%
glycerol, 2 mM β-ME). The purified protein was concentrated and stored at -80 °C until further
Fluorescence polarization. The fluorescence polarization assay was performed in black low volume
IC50 measurements were performed with three technical
minutes with compound concentrations ranging from 0.3 nM to 100 µM in FP assay buffer (20 mM
Tris, pH 7, 100 mM NaCl, 5 mM MgCl2, 2 mM glutathione (reduced), 0.1 % NP-40). Subsequently,
FAM-labeled preE-let-7f-1 (mus musculus) ([…]-
FAM, synthesized by IDT) was added to a final concentration of 2 nM. Fluorescence polarization
was detected after incubation at room temperature using a TECAN Spark plate reader. Half maximal
inhibitory concentrations (IC50) were determined using GraphPad Prism 7. […]

Where [3] appears, read: starting from a maximum of 60 μM, extrapolated based on the observed IC50 curves.
Where [4] appears, read: starting from 30 μM, extrapolated based on the observed IC50 curves.
Setting [5] is: starting from a maximum concentration of 60 μM.

On to `O=C(C1=C(O)C(=O)N(c2ccc(C(=O)O)c(O)c2)C1c1ccc(-c2nccs2)cc1)c1ccc(Br)cc1` (stereo not shown) [PH-30], for which, in experiment [1] (setting [3]), the IC50 is more than 100 µM. Moreover, the “FP, Average (mP)” value in experiment [1] (0.041 μM compound) was determined as 110.75 mP; in experiment [1] (0.123 μM compound), 116.25 mP; in experiment [1] (0.368 μM compound), 115.75 mP; in experiment [1] (1.103 μM compound), 116.25 mP; in experiment [1] (3.125 μM compound), 107.00 mP; in experiment [1] (9.375 μM compound), 111.25 mP. The “FP, Average (mP)” value in experiment [1] (29.688 μM compound) amounted to 107.25 mP; in experiment [1] (59.375 μM compound) it was 98.68 mP.

In the case of `O=C(O)c1ccc(C2C(C(=O)c3ccc(Br)cc3)=C(O)C(=O)N2c2ccc(O)c(C(=O)O)c2)cc1` (stereo not shown) [C893], the half-maximal inhibitory concentration (IC50) in experiment [1] (setting [4]) was 30 to 40 µM.

Turning to `O=C(O)c1ccc(C2C(C(=O)c3ccccc3)=C(O)C(=O)N2c2ccc(C(=O)O)cc2)cc1` (stereo not shown) [C882], the IC50 in experiment [1] (setting [4]) is more than 100 µM.

Consider `O=C(C1=C(O)C(=O)N(c2cccc(-c3nnn[nH]3)c2)C1c1ccc([N+](=O)[O-])cc1)c1ccc(Br)cc1` (stereo not shown) [C892], for which the half-maximal inhibitory concentration (IC50) in experiment [1] (setting [4]) was more than 100 µM.

For the compound `COc1ccc(C(=O)C2=C(O)C(=O)N(c3ccc(C(=O)O)cc3)C2c2ccc([N+](=O)[O-])cc2)cc1` (stereo not shown) [C884], the half-inhibitory concentration (IC50) in experiment [1] (setting [4]) was more than 100 µM.

`O=C(O)c1ccc(C2C(C(=O)c3ccc(Br)cc3)=C(O)C(=O)N2c2cccc(-c3nnn[nH]3)c2)cc1` (stereo not shown) [C896]: in experiment [1] (setting [4]), the concentration for half-maximal inhibition (IC50) was more than 100 µM.

In the case of `O=C(O)c1cccc(N2C(=O)C(O)=C(C(=O)c3ccc(Br)cc3)C2c2ccc([N+](=O)[O-])cc2)c1` (stereo not shown) [C891], the half-inhibitory concentration (IC50) in experiment [1] (setting [4]) is more than 100 µM.

As for `O=C(O)c1ccc(C2C(C(=O)c3ccc(Br)cc3)=C(O)C(=O)N2c2ccc(C(=O)O)cc2)cc1` (stereo not shown) [C895], the IC50 in experiment [1] (setting [4]) is more than 100 µM.

`O=C(O)c1cccc(N2C(=O)C(O)=C(C(=O)c3ccccc3)C2c2ccc(-c3nccs3)cc2)c1` (stereo not shown) [C897]: in experiment [1] (setting [4]), the IC50 is 30 to 40 µM.

With `O=C(C1=C(O)C(=O)N(c2ccc(O)c(C(=O)O)c2)C1c1ccc(-c2nccs2)cc1)c1ccco1` (stereo not shown) [PH-43], the IC50 in experiment [1] (setting [5]) came to 5 µM. Besides, the “FP, Average (mP)” value in experiment [1] (0.041 μM compound) is reported as 110.50 mP; in experiment [1] (0.123 μM compound), 109.50 mP; in experiment [1] (0.368 μM compound), 109.75 mP; in experiment [1] (1.103 μM compound), 98.88 mP; in experiment [1] (3.125 μM compound) it was 79.00 mP; in experiment [1] (9.375 μM compound), 55.18 mP. The “FP, Average (mP)” value turned out to be 37.25 mP in experiment [1] (29.688 μM compound) and 33.68 mP in experiment [1] (59.375 μM compound).

As to `COc1ccc(C(=O)C2=C(O)C(=O)N(c3cccc(C(=O)O)c3)C2c2ccc([N+](=O)[O-])cc2)cc1` (stereo not shown) [C883], the concentration for half-maximal inhibition (IC50) in experiment [1] (setting [4]) was more than 100 µM.

With `O=C(O)c1ccc(C2C(C(=O)c3ccccc3)=C(O)C(=O)N2c2ccc(O)cc2)cc1` (stereo not shown) [PH-36], the “activity in the FP assay” value in experiment [2] was “inactive”. Moreover, in experiment [1] (setting [3]), the IC50 is more than 100 µM. The “FP, Average (mP)” value is listed as 115.00 mP in experiment [1] (0.041 μM compound); 116.25 mP in experiment [1] (0.123 μM compound); 113.50 mP in experiment [1] (0.368 μM compound); 112.00 mP in experiment [1] (1.103 μM compound); 104.83 mP in experiment [1] (3.125 μM compound); 108.50 mP in experiment [1] (9.375 μM compound). For the same compound, the “FP, Average (mP)” value in experiment [1] (29.688 μM compound) was determined as 96.03 mP; in experiment [1] (59.375 μM compound), 79.35 mP.

With `O=C(O)c1ccc(C2C(C(=O)c3ccccc3)=C(O)C(=O)N2c2ccc(C(=O)O)c(O)c2)cc1` (stereo not shown) [PH-38], the IC50 in experiment [1] (setting [5]) is 16 µM. The “FP, Average (mP)” value turned out to be 113.00 mP in experiment [1] (0.041 μM compound); 113.25 mP in experiment [1] (0.123 μM compound); 117.75 mP in experiment [1] (0.368 μM compound); 113.25 mP in experiment [1] (1.103 μM compound); 101.00 mP in experiment [1] (3.125 μM compound); 86.53 mP in experiment [1] (9.375 μM compound). For the same compound, the “FP, Average (mP)” value amounted to 50.30 mP in experiment [1] (29.688 μM compound) and 49.00 mP in experiment [1] (59.375 μM compound).
